Experiments:
[1] = test system: IL-2 stimulated pSTAT5 in Tall-1 T cells (JAK1/3); assay: Inhibition of IL-2 stimulated pSTAT5 in Tall-1 T cells; type: cell-based; conditions: Homo sapiens, IL-2 300 ng/mL, AlphaLisa pSTAT5, read-out: Tall-1 pIC50 (converted)
Description: Assay 2: Inhibition of IL-2 Stimulated pSTAT5 in Tall-1 T Cells
The potency of test compounds for inhibition of interleukin-2 (IL-2) stimulated STATS phosphorylation was measured in the Tall-1 human T cell line (DSMZ) using AlphaLisa. Because IL-2 signals through JAK1/3, this assay provides a measure of JAK1/3 cellular potency.
Phosphorylated STATS was measured via the AlphaLISA SureFire Ultra pSTAT5 (Tyr694/699) kit (PerkinElmer).
Human T cells from the Tall-1 cell line were cultured in a 37° C., 5% CO2 humidified incubator in RPMI (Life Technologies) supplemented with 15% Heat Inactivated Fetal Bovine Serum (FBS, Life Technologies), 2mM Glutamax (Life Technologies), 25 mM HEPES (Life Technologies) and 1X Pen/Strep (Life Technologies). […] Phosphorylated STATS was measured via the pSTAT5 AlphaLisa kit (PerkinElmer). […] Luminescence was measured with excitation at 689 nm and emission at […] using an EnVision plate reader (PerkinElmer) under green filtered <100 lux light.
To determine the inhibitory potency of test compounds in response to IL-2, the average emission intensity of beads bound to pSTAT5 was measured in a human T cell line. IC50 values were determined from analysis of the inhibition curves of signal intensity versus compound concentration. Data are expressed as pIC50 (negative decadic logarithm IC50) values (mean±standard deviation).

[2] = Pharmacokinetics in plasma and lung in mouse; type: in vivo; conditions: single oral aspiration 0.2 mg/mL 50 μL
Description: Assay 5: Pharmacokinetics in Plasma and Lung in Mouse
Plasma and lung concentrations of test compounds and ratios thereof were determined in the following manner. BALB/c mice from Charles River Laboratories were used in the assay. Test compounds were individually formulated in 20% propylene glycol in pH 4 citrate buffer at a concentration of 0.2 mg/mL and 50 μL of the dosing solution was introduced into the trachea of a mouse by oral aspiration. At various time points (typically 0.167, 2, 6, 24 hr) post dosing, blood samples were removed via cardiac puncture and intact lungs were excised from the mice. Blood samples were centrifuged (Eppendorf centrifuge, 5804R) for 4 minutes at approximately 12,000 rpm at 4° C. to collect plasma. […] Plasma and lung concentrations of test compound were determined by LC-MS analysis against analytical standards constructed into a standard curve in the test matrix. A lung-to-plasma ratio was determined as the ratio of the lung AUC in μg hr/g to the plasma AUC in μg hr/mL, where AUC is conventionally defined as the area under the curve of test compound concentration vs. time.

[3] = target: Abl2 (Homo sapiens, UniProt P42684); assay: biochemical; conditions: ATP 10 μM
Chain of Abl2 (P42684 whole entry): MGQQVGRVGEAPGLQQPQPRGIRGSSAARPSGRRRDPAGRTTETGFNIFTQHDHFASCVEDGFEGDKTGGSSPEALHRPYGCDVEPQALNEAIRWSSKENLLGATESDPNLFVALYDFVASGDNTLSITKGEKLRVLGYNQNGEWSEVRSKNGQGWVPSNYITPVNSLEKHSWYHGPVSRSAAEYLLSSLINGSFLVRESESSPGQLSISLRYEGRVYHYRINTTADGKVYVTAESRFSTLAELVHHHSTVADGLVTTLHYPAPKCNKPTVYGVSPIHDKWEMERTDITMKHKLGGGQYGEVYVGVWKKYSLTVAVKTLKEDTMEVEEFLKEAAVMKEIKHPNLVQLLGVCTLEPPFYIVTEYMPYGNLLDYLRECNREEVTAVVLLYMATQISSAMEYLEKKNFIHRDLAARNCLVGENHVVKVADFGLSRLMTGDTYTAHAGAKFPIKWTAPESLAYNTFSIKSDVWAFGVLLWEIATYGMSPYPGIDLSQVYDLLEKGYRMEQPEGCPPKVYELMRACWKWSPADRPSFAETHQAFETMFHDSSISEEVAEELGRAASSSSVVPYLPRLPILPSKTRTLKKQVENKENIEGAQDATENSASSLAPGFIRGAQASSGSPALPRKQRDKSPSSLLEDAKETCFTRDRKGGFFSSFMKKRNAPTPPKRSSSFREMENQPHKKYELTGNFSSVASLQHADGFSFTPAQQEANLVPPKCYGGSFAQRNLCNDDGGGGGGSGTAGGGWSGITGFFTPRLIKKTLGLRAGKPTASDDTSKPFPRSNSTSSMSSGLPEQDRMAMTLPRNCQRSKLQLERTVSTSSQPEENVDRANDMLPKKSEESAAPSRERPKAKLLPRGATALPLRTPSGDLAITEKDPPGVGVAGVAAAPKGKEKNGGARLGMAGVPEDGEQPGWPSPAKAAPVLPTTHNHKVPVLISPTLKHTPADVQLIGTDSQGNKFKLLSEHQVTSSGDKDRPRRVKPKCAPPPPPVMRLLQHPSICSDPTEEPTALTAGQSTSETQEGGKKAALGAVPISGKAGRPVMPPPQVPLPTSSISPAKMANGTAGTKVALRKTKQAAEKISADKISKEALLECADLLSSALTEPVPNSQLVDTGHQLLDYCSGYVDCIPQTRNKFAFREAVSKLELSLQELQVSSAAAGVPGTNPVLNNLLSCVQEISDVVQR

**Q.** Which IC50 [1] does the source give for `CCc1cc(O)ccc1-c1ccc2c(-c3nc4c([nH]3)CN(C(C)C)[C@H](C(=O)N3CC(N(C)C)C3)C4)n[nH]c2c1` [Compound 1, (S)-(3-(dimethylamino)azetidin-1-yl)(2-(6-(2-ethyl-4-hydroxyphenyl)-1H-indazol-3-yl)-5-isopropyl-4,5,6,7-tetrahydro-3H-imidazo[4,5-c]pyridin-6-yl)methanone] here?
**A.** The IC50 was 2.51 nM.

**Q.** And the “Lung Tissue AUC(0-24)” value [2]?
**A.** The value was 54.5 µg·h/g.

**Q.** And the “Plasma AUC(0-24)” value [2]?
**A.** The value was 943 ng·h/mL.

**Q.** What about the IC50 [3] of the same compound?
**A.** Its IC50 is 15 nM.

Source: patent US20210346357A1 (priority 2020, published 2021)
